The record followed here is ChEMBL document CHEMBL1142765, “Discodermolide analogues as the chemical component of combination bacteriolytic therapy” (Bioorg Med Chem Lett, 2005).

What all share (format): functional, organism-based
Common to all, as to settings: Homo sapiens

For one experiment, the system named is SK-OV-3. The experiment in a line: Inhibitory concentration […] exhibited against SKOV3 cell line […].
In the next experiment the test system is A549. The experiment can be described thus: Inhibitory concentration […] exhibited against A549 cell line […].
For a further experiment, the system named is MCF7. The experiment in a line: Inhibitory concentration […] exhibited against MCF-7 cell line […].

SMILES strings stand for the structures.

As for `C=C/C=C\[C@H](C)[C@H](OC(N)=O)[C@@H](C)[C@H](O)[C@@H](C)C/C=C\[C@H](C)[C@@H](O)[C@@H](C)/C=C\[C@@H](O)C[C@@H]1OC(=O)[C@H](C)[C@@H](O)[C@H]1C`, the IC50 in the experiment with SK-OV-3 was 35 nM; in the experiment on A549, 50 nM; with MCF7 it was 46 nM.

`C=C/C=C\[C@H](C)[C@H](OC(N)=O)[C@@H](C)[C@H](O)[C@@H](C)C/C(C)=C\[C@H](C)[C@@H](O)[C@@H](C)/C=C\[C@@H](O)C[C@@H]1OC(=O)[C@H](C)[C@@H](O)[C@H]1C` [DISERMOLIDE]: the IC50 was 21 nM with SK-OV-3, 22 nM with A549 and 28 nM in the experiment with MCF7.

With `C=C/C=C\[C@H](C)[C@H](OC(N)=O)[C@@H](C)[C@H](O)[C@@H](C)C/C(C)=C\[C@H](C)[C@@H](O)[C@@H](C)/C=C\[C@@H](O)C[C@@H]1OC(=O)C=C[C@H]1C`, the IC50 with SK-OV-3 amounted to 3.4 nM; in the experiment on A549 it was 3.7 nM; in the experiment on MCF7, 2.1 nM.

As to `C=C/C=C\[C@H](C)[C@H](OC(N)=O)[C@@H](C)[C@H](O)[C@@H](C)C/C(C)=C\[C@H](C)[C@@H](O)[C@@H](C)/C=C\[C@@H](O)C[C@@H]1OC(=O)C(C)=C[C@H]1C`, the IC50 in the experiment with SK-OV-3 turned out to be 3.4 nM; in the experiment with A549, 8.6 nM; in the experiment on MCF7, 5.6 nM.
